pIC50: −log10 of the molar value.

Chain of human Nav1.7 (Q15858 whole entry): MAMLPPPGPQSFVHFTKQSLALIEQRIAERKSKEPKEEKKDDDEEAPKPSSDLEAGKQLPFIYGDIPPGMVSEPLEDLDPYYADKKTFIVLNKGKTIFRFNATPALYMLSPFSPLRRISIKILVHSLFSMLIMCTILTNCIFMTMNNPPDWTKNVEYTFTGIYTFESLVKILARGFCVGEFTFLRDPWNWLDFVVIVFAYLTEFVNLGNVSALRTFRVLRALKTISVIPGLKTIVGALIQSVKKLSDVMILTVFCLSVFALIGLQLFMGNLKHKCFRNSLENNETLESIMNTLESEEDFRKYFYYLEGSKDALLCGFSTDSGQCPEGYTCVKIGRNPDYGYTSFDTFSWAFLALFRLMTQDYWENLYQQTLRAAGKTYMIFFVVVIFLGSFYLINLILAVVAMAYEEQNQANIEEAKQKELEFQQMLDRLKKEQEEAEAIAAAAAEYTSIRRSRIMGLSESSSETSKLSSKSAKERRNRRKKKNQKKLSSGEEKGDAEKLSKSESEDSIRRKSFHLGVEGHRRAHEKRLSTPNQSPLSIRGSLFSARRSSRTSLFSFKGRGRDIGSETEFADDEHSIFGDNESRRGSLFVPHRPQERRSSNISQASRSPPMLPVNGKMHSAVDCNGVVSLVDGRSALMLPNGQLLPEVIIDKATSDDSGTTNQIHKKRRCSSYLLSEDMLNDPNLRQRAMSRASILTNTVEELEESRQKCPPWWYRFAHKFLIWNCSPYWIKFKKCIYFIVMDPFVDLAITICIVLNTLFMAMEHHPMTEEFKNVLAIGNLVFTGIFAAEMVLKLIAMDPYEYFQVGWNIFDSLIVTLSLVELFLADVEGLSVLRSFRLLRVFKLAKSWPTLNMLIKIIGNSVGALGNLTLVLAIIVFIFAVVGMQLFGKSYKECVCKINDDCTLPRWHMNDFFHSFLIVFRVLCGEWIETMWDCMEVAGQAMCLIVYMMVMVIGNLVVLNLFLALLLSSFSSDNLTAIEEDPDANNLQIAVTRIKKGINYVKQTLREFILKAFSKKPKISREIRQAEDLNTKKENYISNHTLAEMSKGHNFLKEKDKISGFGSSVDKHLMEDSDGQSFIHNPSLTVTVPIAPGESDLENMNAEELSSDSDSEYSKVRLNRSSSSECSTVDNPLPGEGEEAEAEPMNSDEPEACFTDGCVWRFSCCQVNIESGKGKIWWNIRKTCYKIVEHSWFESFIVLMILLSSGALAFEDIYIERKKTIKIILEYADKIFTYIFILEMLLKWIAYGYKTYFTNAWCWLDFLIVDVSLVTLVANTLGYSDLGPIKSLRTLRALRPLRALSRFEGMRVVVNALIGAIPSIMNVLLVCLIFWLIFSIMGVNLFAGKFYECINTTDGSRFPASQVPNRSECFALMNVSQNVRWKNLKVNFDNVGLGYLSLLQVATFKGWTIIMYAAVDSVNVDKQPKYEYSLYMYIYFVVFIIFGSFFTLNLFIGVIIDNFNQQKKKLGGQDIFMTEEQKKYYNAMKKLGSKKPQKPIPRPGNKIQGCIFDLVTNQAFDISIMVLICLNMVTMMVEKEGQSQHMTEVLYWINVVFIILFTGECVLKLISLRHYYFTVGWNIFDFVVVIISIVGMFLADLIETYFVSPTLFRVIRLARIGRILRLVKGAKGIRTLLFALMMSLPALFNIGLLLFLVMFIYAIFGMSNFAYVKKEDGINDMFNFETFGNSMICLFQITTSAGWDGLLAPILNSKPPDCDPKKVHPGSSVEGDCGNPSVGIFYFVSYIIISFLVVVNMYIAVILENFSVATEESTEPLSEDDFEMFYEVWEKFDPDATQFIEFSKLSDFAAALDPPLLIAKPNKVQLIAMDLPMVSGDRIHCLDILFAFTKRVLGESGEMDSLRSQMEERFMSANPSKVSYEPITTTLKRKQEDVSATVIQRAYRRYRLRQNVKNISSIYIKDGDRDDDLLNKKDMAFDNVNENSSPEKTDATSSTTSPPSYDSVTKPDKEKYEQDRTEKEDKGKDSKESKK

The assay has as its target human Nav1.7 (Homo sapiens (Human), UniProt Q15858). As to the kind of experiment: FRET-based membrane potential assay, recombinant human sodium channel Nav1.7. The format is cell-based. Particulars: HEK293 cells stably expressing recombinant human Nav1.7; depolarization with veratridine (EC80) + scorpion venom. The gist of the method:
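IC50 derived by four-parameter Hill fit of percent inhibition of depolarization, measured as peak F440-480/F565-625 ratio over baseline. Stable human Nav1.7 HEK293 cells, dye-loaded with CC2-DMPE and DiSBAC2(3)/VABSC-1 at room temperature, received compound 3 min ahead of veratridine (EC80) plus scorpion venom.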
As usually defined, the pIC50 is −log10 of the IC50, conventionally taken in molar units. Turning to `O=C(CN1CCN(c2cccc3c2cnn3-c2ccccc2F)C1=O)c1cccnc1` [Example 152, 1-[1-(2-fluorophenyl)-1H-indazol-4-yl]-3-[2-oxo-2-(pyridin-3-yl)ethyl]imidazolidin-2-one], the pIC50 is 5.65.

As to `O=C(CN1CCN(c2cccc3c2cnn3-c2ccccc2F)C1=O)c1ccc2c(c1)OCO2` [Example 153, 1-[2-(1,3-benzodioxol-5-yl)-2-oxoethyl]-3-[1-(2-fluorophenyl)-1H-indazol-4-yl]imidazolidin-2-one], the pIC50 is 5.88.

`O=C1N(c2cnccc2F)CCN1c1cccc2c1cnn2-c1ccccc1F` [Example 154, 1-[1-(2-fluorophenyl)-1H-indazol-4-yl]-3-(4-fluoropyridin-3-yl)imidazolidin-2-one]: the pIC50 is 5.54.

As to `CC(C)C[C@@H](O)CN1CCN(c2cccc3c2cnn3-c2ccccc2F)C1=O` [Example 155, 1-[1-(2-fluorophenyl)-1H-indazol-4-yl]-3-[(2R)-2-hydroxy-4-methylpentyl]imidazolidin-2-one], the pIC50 is 5.73.

In the case of `CC(C)C[C@H](O)CN1CCN(c2cccc3c2cnn3-c2ccccc2F)C1=O` [Example 156, 1-[1-(2-fluorophenyl)-1H-indazol-4-yl]-3-[(2S)-2-hydroxy-4-methylpentyl]imidazolidin-2-one], the pIC50 is 5.87.

With `O=C(CC1CCOC1)CN1CCN(c2cccc3c2cnn3-c2ccccc2F)C1=O` (stereo not drawn) [Example 157, 1-[1-(2-fluorophenyl)-1H-indazol-4-yl]-3-[2-oxo-3-(tetrahydrofuran-3-yl)propyl]imidazolidin-2-one], the pIC50 was 5.47.

Regarding `O=C1N(c2cncs2)CCN1c1cccc2c1cnn2-c1ccccc1F` [Example 158, 1-[1-(2-fluorophenyl)-1H-indazol-4-yl]-3-(1,3-thiazol-5-yl)imidazolidin-2-one], the pIC50 is 4.70.

Consider `CC[C@@H](CO)N1CCN(c2cccc3c2cnn3-c2ccccc2F)C1=O` [Example 159, 1-[1-(2-fluorophenyl)-1H-indazol-4-yl]-3-[(2S)-1-hydroxybutan-2-yl]imidazolidin-2-one], for which the negative-log IC50 (pIC50) is 5.44.

Regarding `CC[C@@H](O)CN1CCN(c2cccc3c2cnn3-c2ccccc2F)C1=O` [Example 160, 1-[1-(2-fluorophenyl)-1H-indazol-4-yl]-3-[(2R)-2-hydroxybutyl]imidazolidin-2-one], the pIC50 was 5.45.

For the compound `CC(C)(C)C(=O)CN1CCN(c2cccc3c2cnn3-c2ccccc2F)C1=O` [Example 161, 1-(3,3-dimethyl-2-oxobutyl)-3-[1-(2-fluorophenyl)-1H-indazol-4-yl]imidazolidin-2-one], the pIC50 is 5.85.

Turning to `CC(C)C(=O)CN1CCN(c2cccc3c2cnn3-c2ccccc2F)C1=O` [Example 162, 1-[1-(2-fluorophenyl)-1H-indazol-4-yl]-3-(3-methyl-2-oxobutyl)imidazolidin-2-one], the pIC50 was 6.14.

With `CC(C)C(O)CN1CCN(c2cccc3c2cnn3-c2ccccc2F)C1=O` (stereo not drawn) [Example 163, 1-[1-(2-fluorophenyl)-1H-indazol-4-yl]-3-(2-hydroxy-3-methylbutyl)imidazolidin-2-one], the pIC50 was 5.67.

As to `O=C(CN1CCN(c2cccc3c2cnn3-c2ccccc2F)C1=O)C1CCC1` [Example 164, 1-(2-cyclobutyl-2-oxoethyl)-3-[1-(2-fluorophenyl)-1H-indazol-4-yl]imidazolidin-2-one], the negative-log IC50 (pIC50) was 6.20.

As to `O=C1N(CC(O)C2CCC2)CCN1c1cccc2c1cnn2-c1ccccc1F` (stereo not drawn) [Example 165, 1-(2-cyclobutyl-2-hydroxyethyl)-3-[1-(2-fluorophenyl)-1H-indazol-4-yl]imidazolidin-2-one], the negative-log IC50 (pIC50) was 6.17.

As to `O=C(C1CCC1)C(O)N1CCN(c2cccc3c2cnn3-c2ccccc2F)C1=O` (stereo not drawn) [Example 166, 1-(2-cyclobutyl-1-hydroxy-2-oxoethyl)-3-[1-(2-fluorophenyl)-1H-indazol-4-yl]imidazolidin-2-one], the pIC50 was 6.36.

Values taken from patent US9783527B2, “Indazole ureas and method of use” (AbbVie Inc., priority 2014, dated 2017).
